Results: article PMC5120204, “Identification of an orally active small-molecule PTHR1 agonist for the treatment of hypoparathyroidism” (Nature Communications, 2016)

Experiments:
UMR-106 cells = test: Gene expression assay in UMR-106 cells; type: cell-based, rat
Experimental: UMR-106 cells (ATCC) were incubated with DMEM with 0.2% BSA for 4 h and were then treated with hPTH(1–34) or PCO371 for 1 or 6 h. At 1 or 6 h after adding test compounds, total RNA was isolated by using an RNeasy Plus Kit (Qiagen). cDNA was transcribed from the isolated total RNA by using TaqMan Reverse Transcription Reagents (Thermo Fisher Scientific). mRNA levels were quantified by a real-time PCR system (Thermo Fisher Scientific). The relative quantity of transcripts was calculated by using the comparative threshold cycle (Ct) method and normalized to 18S ribosomal RNA as an internal control. The following cDNA-specific primers and probes were used: Fos (encoded by Fos, Rn02396759_m1), osteocalcin (encoded by Bglap, Rn00566386_g1), receptor activator of nuclear factor-κB ligand (RANKL, encoded by Tnfsf11, Rn00589289_m1), osteoprotegerin (osteoprotegerin, encoded by Tnfrsf11b, Rn00563499_m1) and sclerostin (encoded by Sost, Rn00577971_m1).

hPTHR1 = target: T1, hPTHR1 (Homo sapiens, UniProt Q03431); test: Receptor binding assay, competition with 125I-[Aib1,3,M]–PTH(1–15) on COS-7 membranes; details: at 100 μmol l^−1
T1 construct: similar to that of cells expressing full-length hPTHR1; expressed in transfected cells; host or cells: COS-7 (transient, FuGENE HD)
T1 sequence (Q03431 27-593 E93Y/D94P/K95Y/E96D/A97V/T99D/G100Y/S101A): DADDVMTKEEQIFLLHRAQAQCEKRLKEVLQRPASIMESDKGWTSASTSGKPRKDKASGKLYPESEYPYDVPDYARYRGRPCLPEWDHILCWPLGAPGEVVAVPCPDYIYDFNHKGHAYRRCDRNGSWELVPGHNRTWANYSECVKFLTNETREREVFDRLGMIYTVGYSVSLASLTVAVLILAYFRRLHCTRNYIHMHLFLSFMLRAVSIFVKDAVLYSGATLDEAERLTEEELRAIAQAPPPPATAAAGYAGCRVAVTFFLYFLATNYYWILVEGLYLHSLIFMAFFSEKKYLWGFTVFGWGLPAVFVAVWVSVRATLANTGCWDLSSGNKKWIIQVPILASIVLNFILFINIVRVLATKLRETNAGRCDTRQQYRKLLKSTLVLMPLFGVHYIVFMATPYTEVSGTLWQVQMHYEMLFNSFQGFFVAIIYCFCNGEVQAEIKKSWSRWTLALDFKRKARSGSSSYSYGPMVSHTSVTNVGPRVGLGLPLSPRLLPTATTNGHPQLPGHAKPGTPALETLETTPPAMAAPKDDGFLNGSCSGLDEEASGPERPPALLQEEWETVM
Experimental: COS-7 cells (ATCC) were seeded into 10-cm dishes (1.7 × 10^6 cells per dish) and incubated overnight. The next day, the COS-7 cells were transfected by adding 500 μl of a mixture of hPTHR1 plasmid (10 μg per dish), FuGENE HD Transfection Reagent (40 μl per dish, Promega) and Opti-MEM I Reduced Serum Medium (450 μl per well, Life Technologies) to each dish. On the third day after the cells were seeded into the dishes, the culture medium in the dishes was discarded, each dish was washed with 5 ml of Buffer A (10 mmol l^−1 Tris-HCl, pH 7.4/4 mmol l^−1 EDTA) without protease inhibitor cocktail (PI; Nacalai Tesque, Inc.), and then 750 μl of Buffer A (10 mmol l^−1 Tris-HCl, pH 7.4/4 mmol l^−1 EDTA/1 × PI) was added to each dish. […] The protein concentration was determined using Protein Assay Dye Reagent Concentrate (Bio-Rad Laboratories, Inc). […]
The binding of hPTH(1–34) and PCO371 free base to hPTHR1 was evaluated by competition assay using ^125I-[Aib^1,3,M]PTH(1–15) as the competing entity. […] The dried filter was recovered, and the ^125I radioactivity was measured using a gamma counter. […] Total ^125I count rates (cpm) measured by the gamma counter were used as the primary data. Binding to hPTHR1 was evaluated by calculating the per cent specific binding from the following formula using Microsoft Office Excel 2007.
Percentage specific binding was calculated by the following formula: equation (1) […]

SMILES: Cc1cc(N2C(=O)NC(=O)C2(C)C)cc(C)c1CCS(=O)(=O)N1CCC2(CC1)N=C(c1ccc(OC(F)(F)F)cc1)NC2=O [PCO371, 1-{3,5-dimethyl-4-[2-({4-oxo-2-[4-(trifluoromethoxy)phenyl]-1,3,8-triazaspiro[4.5]dec-1-en-8-yl}sulfonyl)ethyl]phenyl}-5,5-dimethylimidazolidine-2,4-dione]
- expression of mRNAs for Fos, osteocalcin and RANKL (UMR-106 cells; 1 h (Fos) or 6 h): dose-dependently increased
- expression of mRNAs for osteoprotegerin and sclerostin (UMR-106 cells; 6 h): dose-dependently decreased
- inhibition of the binding of 125I-[Aib1,3,M]–PTH(1–15) (hPTHR1): almost completely
